Molecular target: T1, BKB1 receptors (Homo sapiens, UniProt P46663)
T1 construct: Human (IMR-90) lung fibroblast cells expressing native B1 receptors; endogenous in cells; host or cells: IMR-90 human lung fibroblasts, interleukin-treated to up-regulate BKB1 receptors
T1 sequence (P46663 1-353): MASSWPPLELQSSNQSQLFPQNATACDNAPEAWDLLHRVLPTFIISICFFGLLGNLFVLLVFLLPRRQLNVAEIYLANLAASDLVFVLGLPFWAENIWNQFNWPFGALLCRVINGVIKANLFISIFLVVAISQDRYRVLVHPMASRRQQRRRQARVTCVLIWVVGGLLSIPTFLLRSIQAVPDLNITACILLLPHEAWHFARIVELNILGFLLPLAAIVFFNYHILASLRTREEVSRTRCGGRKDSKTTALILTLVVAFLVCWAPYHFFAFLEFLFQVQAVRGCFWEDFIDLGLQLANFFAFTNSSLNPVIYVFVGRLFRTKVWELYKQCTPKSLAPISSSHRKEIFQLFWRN
Assay: Calcium mobilization assay (FLIPR), B1 receptors in IMR-90 cells
Format: cell-based
Conditions: Human IMR-90 lung fibroblast cells, up-regulated BKB1 receptors, agonist desArg10-kallidin (DAKD) 2 to 8 nM, calcium-dependent fluorescence
Procedure: Calcium mobilization assay (FLIPR)—Human (IMR-90) lung fibroblast cells expressing native B1 receptors were harvested by trypsinization and seeded into black wall/clear bottom 96-well plates (Costar 3904; Corning Life Sciences, Acton, Mass.) at approximately 13,000 cells/well. After 1 day incubation, cells were treated with […] (0.35 ng/ml) in 10% FBS/MEM for 2 h to up-regulate BKB1 receptors. Induced cells were loaded with fluorescent calcium indicator by incubation with 2.3 μM Fluo-4/acetoxymethyl ester (Invitrogen) at 37° C. for 1.5 h in the presence of an anion transport inhibitor (2.5 mM probenecid in 1% FBS/MEM). Extracellular dye was removed by washing with assay buffer (2.5 mM probenecid, 0.1% BSA in 20 mM HEPES/HBSS without bicarbonate or phenol red, pH 7.5) and cell plates were kept in the dark until used. Test compounds were assayed at eight concentrations in triplicate. Addition of test compounds to the cell plate and incubation for 5 min at 35° C., followed by the addition of 2 to 8 nM final BK1 agonist desArg^10-kallidin (DAKD, 3×EC50) was carried out in the fluorimetric imaging plate reader (FLIPR; Molecular Devices) while continuously monitoring calcium-dependent fluorescence.

Structure (SMILES) | IC50 [µM]
CC(C(=O)NC(c1ccco1)N1CCOCC1)c1ccc(Nc2nc(C(F)(F)F)cs2)cc1 (stereo not shown) [Compound 43, N-[furan-2-yl(morpholin-4-yl)methyl]-2-(4-{[4-(trifluoromethyl)-1,3-thiazol-2-yl]amino}phenyl)propanamide] | 12.9
CC(C(=O)Nc1cnccn1)c1ccc(Oc2ccc(F)cc2)cc1 (stereo not shown) [Compound 75, 2-[4-(4-fluorophenoxy)phenyl]-N-(pyrazin-2-yl)propanamide] | 1.2
CC(C)(C)NC(=O)CNC(=O)C(C)(C)c1ccc(OS(=O)(=O)C(F)(F)F)cc1 [Compound 6, 4-(2-methyl-1-{[2-(tert-butylamino)-2-oxoethyl]amino}-1-oxopropan-2-yl)phenyl trifluoromethanesulfonate] | 17.8
CC(F)(C(=O)Nc1ccccc1S(N)(=O)=O)c1cccc(Nc2nc(C(F)(F)F)cs2)c1 (stereo not shown) [Compound 5, 2-fluoro-N-(2-sulfamoylphenyl)-2-(3-{[4-(trifluoromethyl)-1,3-thiazol-2-yl]amino}phenyl)propanamide] | 8.71
CC(C(=O)NCCOc1ccc(F)cc1)c1cccc(OS(=O)(=O)C(F)(F)F)c1 (stereo not shown) [Compound 20, 3-(1-{[2-(4-fluorophenoxy)ethyl]amino}-1-oxopropan-2-yl)phenyl trifluoromethanesulfonate] | 16.6
CC(C(=O)Nc1ccncc1)c1ccc(Nc2ccccc2-n2cccc2)cc1 (stereo not shown) [Compound 82] | 5.75
CCn1cc(NC(=O)C(C)c2ccc(C(=O)c3ccccc3)s2)c(C)n1 (stereo not shown) [Compound 8, N-(1-ethyl-3-methyl-1H-pyrazol-4-yl)-2-[5-(phenylcarbonyl)thiophen-2-yl]propanamide] | 2.63
Cc1cc(NC(=O)C(C)c2ccc(CC(C)C)cc2)n(C)n1 (stereo not shown) [Compound 40, N-(1,3-dimethyl-1H-pyrazol-5-yl)-2-[4-(2-methylpropyl)phenyl]propanamide] | 2.09
CC(C(=O)Nc1cnccn1)c1ccc(N2CCCCC2)cc1 (stereo not shown) [Compound 77, 2-[4-(piperidin-1-yl)phenyl]-N-(pyrazin-2-yl)propanamide] | 4.37
CC(C(=O)Nc1ccncn1)c1cccc(NC2CC2)c1 (stereo not shown) [Compound 14, 2-[3-(cyclopropylamino)phenyl]-N-(pyrimidin-4-yl)propanamide] | 6.31
CC(C(N)=O)c1cccc(Nc2ccc3c(c2)OC(F)(F)O3)c1 (stereo not shown) [Compound 76, 2-{3-[(2,2-difluoro-1,3-benzodioxol-5-yl)amino]phenyl}propanamide] | 8.91
CC(C(=O)Nc1ccncn1)c1ccc(N2CCCCC2)cc1 (stereo not shown) [Compound 69, 2-[4-(piperidin-1-yl)phenyl]-N-(pyrimidin-4-yl)propanamide] | 14.1
CC(C)Cc1ccc(C(C)C(=O)Nc2ccncc2)cc1 (stereo not shown) [Compound 37, 2-[4-(2-methylpropyl)phenyl]-N-(pyridin-4-yl)propanamide] | 1.38
COc1cccc(Nc2ccc(C(C)C(=O)Nc3ccncn3)cc2)c1OC (stereo not shown) [Compound 26, 2-{4-[(2,3-dimethoxyphenyl)amino]phenyl}-N-(pyrimidin-4-yl)propanamide] | 5.75
CC(F)(C(N)=O)c1ccc(OS(=O)(=O)C(F)(F)F)cc1 (stereo not shown) [Compound 1, 4-(1-amino-2-fluoro-1-oxopropan-2-yl)phenyl trifluoromethanesulfonate] | 6.46
CC(C(=O)NCCCN(C)C)c1ccc(Oc2cccc3ccccc23)cc1 (stereo not shown) [Compound 62, N-[3-(dimethylamino)propyl]-2-[4-(naphthalen-1-yloxy)phenyl]propanamide] | 3.8
COc1cc(Nc2cccc(C(C)C(=O)NC3CCCCC3N)c2)cc(C(F)(F)F)c1 (stereo not shown) [Compound 59, N-(2-aminocyclohexyl)-2-[3-{[3-methoxy-5-(trifluoromethyl)phenyl]amino}phenyl]propanamide] | 6.92
CC(C(=O)Nn1cnnc1)c1ccc(NS(=O)(=O)c2ccc(Cl)cc2)cc1 (stereo not shown) [Compound 78, 2-(4-{[(4-chlorophenyl)sulfonyl]amino}phenyl)-N-(4H-1,2,4-triazol-4-yl) propanamide] | 0.891
Cc1cc(NC(=O)C(C)c2cccc(Oc3cccc(F)c3)c2)n(C)n1 (stereo not shown) [Compound 11, N-(1,3-dimethyl-1H-pyrazol-5-yl)-2-[3-(3-fluorophenoxy)phenyl]propanamide] | 11.2

Structure (SMILES) | IC50 [µM]
CC(C(=O)Nc1nc(C(C)(C)C)cs1)c1ccc(NS(=O)(=O)C(C)C)cc1 (stereo not shown) [Compound 21, 2-{4-[(propan-2-ylsulfonyl)amino]phenyl}-N-(4-tert-butyl-1,3-thiazol-2-yl)propanamide] | 9.12
COc1cccc(CN(C)CCNC(=O)C(C)c2ccc(Nc3nc(C(F)(F)F)co3)cc2)c1 (stereo not shown) [Compound 31, N-{2-[(3-methoxybenzyl)(methyl)amino]ethyl}-2-(4-{[4-(trifluoromethyl)-1,3-oxazol-2-yl]amino}phenyl)propanamide] | 7.76
CC(C(=O)NCC(C)(C)N)c1cccc(Oc2cccc(OC(F)(F)F)c2)c1 (stereo not shown) [Compound 18] | 2.09
CC(C(=O)Nc1ccncc1)c1ccc(OS(=O)(=O)C(F)(F)F)cc1 (stereo not shown) [Compound 47, 4-[1-oxo-1-(pyridin-4-ylamino)propan-2-yl]phenyl trifluoromethanesulfonate] | 3.24
CCCC/C=C/c1cccc(C(C)C(=O)Nc2ccncn2)c1 (stereo not shown) [Compound 28, 2-{3-[hex-1-en-1-yl]phenyl}-N-(pyrimidin-4-yl)propanamide] | 8.51
CC(C(=O)NCCN1CCOCC1)c1ccc(Oc2cccc3ccccc23)cc1 (stereo not shown) [Compound 67, 2-[4-(naphthalen-1-yloxy)phenyl]-N-[2-(morpholin-4-yl)ethyl]propanamide] | 4.07
CC1CC(C)CN(CCNC(=O)C(C)c2ccc(Nc3nc(C(F)(F)F)cs3)cc2)C1 (stereo not shown) [Compound 42, N-[2-(3,5-dimethylpiperidin-1-yl)ethyl]-2-(4-{[4-(trifluoromethyl)-1,3-thiazol-2-yl]amino}phenyl)propanamide] | 6.61
Cc1ccc(Cl)c(Nc2ccc(C(C)C(=O)NCCN3CCOCC3)cc2)c1Cl (stereo not shown) [Compound 16, 2-{4-[(2,6-dichloro-3-methylphenyl)amino]phenyl}-N-[2-(morpholin-4-yl)ethyl]propanamide] | 12
CC(C(=O)Nc1cc(Cl)cc(Cl)c1S(N)(=O)=O)c1ccc(OS(=O)(=O)c2ccccc2Cl)cc1 (stereo not shown) [Compound 81, 4-{1-[(3,5-dichloro-2-sulfamoylphenyl)amino]-1-oxopropan-2-yl}phenyl 2-chlorobenzenesulfonate] | 8.71
C=C(C)CNC(=O)C(C)c1cccc(C(=O)c2cccs2)c1 (stereo not shown) [Compound 23, N-(2-methylprop-2-en-1-yl)-2-[3-(thiophen-2-ylcarbonyl)phenyl]propanamide] | 21.9
CC(C(=O)Nc1ccncc1)c1ccc(Nc2cnc3ccccc3c2)cc1 (stereo not shown) [Compound 80, N-(pyridin-4-yl)-2-[4-(quinolin-3-ylamino)phenyl]propanamide] | 5.25
Cc1cc(NC(=O)C(C)c2cccc(C(=O)c3ccccc3)c2)n(C)n1 (stereo not shown) [Compound 36, N-(1,3-dimethyl-1H-pyrazol-5-yl)-2-[3-(phenylcarbonyl)phenyl]propanamide] | 9.77
CC(C(=O)NCCNc1ccccc1)c1cccc(Oc2cccc(F)c2)c1 (stereo not shown) [Compound 12, 2-[3-(3-fluorophenoxy)phenyl]-N-[2-(phenylamino)ethyl]propanamide] | 7.24
CC(C(=O)Nc1ccc(Cc2ccncc2)cc1)c1ccc(Nc2nc(C(F)(F)F)cs2)cc1 (stereo not shown) [Compound 44, N-[4-(pyridin-4-ylmethyl)phenyl]-2-(4-{[4-(trifluoromethyl)-1,3-thiazol-2-yl]amino}phenyl)propanamide] | 11.5
CC(C(=O)NCCCNC1CCCCC1)c1ccc(Oc2cccc3ccccc23)cc1 (stereo not shown) [Compound 63, N-[3-(cyclohexylamino)propyl]-2-[4-(naphthalen-1-yloxy)phenyl]propanamide] | 3.89
COC(=O)C(CNC(=O)OC(C)(C)C)NC(=O)C(C)c1ccc(Oc2cccc3ccccc23)cc1 (stereo not shown) [Compound 60, methyl 3-[(tert-butoxycarbonyl)amino]-2-[4-(naphthalen-1-yloxyphenyl)propanoyl]aminopropanoate] | 10.5
Cc1cc(NC(=O)C(C)c2cccc(C(=O)c3cccs3)c2)n(C)n1 (stereo not shown) [Compound 24, N-(1,3-dimethyl-1H-pyrazol-5-yl)-2-[3-(thiophen-2-ylcarbonyl)phenyl]propanamide] | 7.41
CC(C)(C(=O)NCCc1ccncc1)c1ccc(OS(=O)(=O)C(F)(F)F)cc1 [Compound 7, 4-(2-methyl-1-oxo-1-{[2-(pyridin-4-yl)ethyl]amino}propan-2-yl)phenyl trifluoromethanesulfonate] | 11.5
